Test results published in patent publication US10149879B2 (priority 2014, dated 2018).

Tests used:
Assay type in all cases: cell-based
[1] = tested on: βTC6 insulinoma cell; experiment: Cell viability assay in βTC6 insulinoma cell line; conditions: for Cell viability: βTC6, control 100.00
Description: Cell Viability Assay in βTC6 Insulinoma Cell Lime Following—

[2] = tested on: L6 cells; experiment: Anti-oxidant activity in L6 cells challenged with H2O2; parameters: Anti-oxidant activity, cells challenged with H2O2: unit not given here; conditions: for Anti-oxidant activity, cells challenged with H2O2: L6; for protection against H2O2 induced cellular oxidative damage: L6 cells
Description: Anti-Oxidant Activity in L6 Cells Challenged with H2O2 Berberin and Palmatine
Anti-Oxidant Activity in L6 Cells Challenged with H2O2—Berberin and Quercetin

[3] = tested on: 3T3-L1 cells; experiment: Anti-oxidant activity in 3T3-L1 cells challenged with H2O2; parameters: Anti-oxidant activity, cells challenged with H2O2: scale not given here; conditions: for Anti-oxidant activity, cells challenged with H2O2: 3T3-L1; for protection against H2O2 induced cellular oxidative damage: 3T3-L1 cells
Description: Anti-Oxidant Activity in 3T3-L1 Cells Challenged with H2O2 Berberin and Palmatine
Anti-Oxidant Activity in 3T3-L1 Cells Challenged with H2O2 Berberin and Quercetin

[4] = tested on: βTC6 insulinoma cell; experiment: Anti-oxidant activity in βTC6 insulinoma cell challenged with H2O2; parameters: Anti-oxidant activity, cells challenged with H2O2: unit not given here; conditions: for Anti-oxidant activity, cells challenged with H2O2: βTC6
Description: Anti-Oxidant Activity in βTC6 Insulinoma Cell Challenged with H2O2 Berberin and Quercetin—
Anti-Oxidant Activity in βTC6 Insulinoma Cell Challenged with H2O2 Berberin and Palmatine—

[5] = comparison with positive standard

## COc1ccc2cc3[n+](cc2c1OC)CCc1cc2c(cc1-3)OCO2 [Berberin]
[1]; 1 pM
  Cell viability: 97.95 ± 1.12
[1]; 10 pM
  Cell viability: 96.99 ± 2.20
[1]; 100 pM
  Cell viability: 94.60 ± 2.45
[1]; 1 nM
  Cell viability: 90.89 ± 1.42
[1]; 10 nM
  Cell viability: 88.65 ± 2.60
[1]; 100 nM
  Cell viability: 86.30 ± 1.67
[1]; 1 μM
  Cell viability: 73.75 ± 2.90
[1]; 10 μM
  Cell viability: 67.89 ± 1.65
[1]; βTC6 insulinoma cells, 10 ng/ml
  toxicity to the cells: non-toxic
[2]; Co-incubated, 10 pM, control 60.10
  Anti-oxidant activity, cells challenged with H2O2: 62.10 ± 4.40
[2]; Co-incubated, 10 pg/ml, control 61.10
  Anti-oxidant activity, cells challenged with H2O2: 60.40 ± 2.20
[2]; Co-incubated, 100 pM, control 60.10
  Anti-oxidant activity, cells challenged with H2O2: 63.97 ± 8.52
[2]; Co-incubated, 100 pg/ml, control 61.10
  Anti-oxidant activity, cells challenged with H2O2: 66.12 ± 2.70
[2]; Co-incubated, 1 nM, control 60.10
  Anti-oxidant activity, cells challenged with H2O2: 66.10 ± 5.67
[2]; Co-incubated, 1 ng/ml, control 61.10
  Anti-oxidant activity, cells challenged with H2O2: 70.07 ± 2.95
[2]; Co-incubated, 10 nM, control 60.10
  Anti-oxidant activity, cells challenged with H2O2: 69.40 ± 5.00
[2]; Co-incubated, 10 ng/ml, control 61.10
  Anti-oxidant activity, cells challenged with H2O2: 75.14 ± 0.90
[2]; Co-incubated, 100 nM, control 60.10
  Anti-oxidant activity, cells challenged with H2O2: 72.40 ± 3.03
[2]; Co-incubated, 100 ng/ml, control 61.10
  Anti-oxidant activity, cells challenged with H2O2: 77.51 ± 1.70
[2]; Pre-incubated, 10 pM, control 60.10
  Anti-oxidant activity, cells challenged with H2O2: 59.80 ± 6.60
[2]; Pre-incubated, 10 pg/ml, control 61.10
  Anti-oxidant activity, cells challenged with H2O2: 63.50 ± 1.00
[2]; Pre-incubated, 100 pM, control 60.10
  Anti-oxidant activity, cells challenged with H2O2: 60.40 ± 8.50
[2]; Pre-incubated, 100 pg/ml, control 61.10
  Anti-oxidant activity, cells challenged with H2O2: 69.40 ± 2.00
[2]; Pre-incubated, 1 nM, control 60.10
  Anti-oxidant activity, cells challenged with H2O2: 63.70 ± 7.25
[2]; Pre-incubated, 1 ng/ml, control 61.10
  Anti-oxidant activity, cells challenged with H2O2: 71.12 ± 1.12
[2]; Pre-incubated, 10 nM, control 60.10
  Anti-oxidant activity, cells challenged with H2O2: 68.60 ± 4.50
[2]; Pre-incubated, 10 ng/ml, control 61.10
  Anti-oxidant activity, cells challenged with H2O2: 78.98 ± 1.90
[2]; Pre-incubated, 100 nM, control 60.10
  Anti-oxidant activity, cells challenged with H2O2: 72.81 ± 5.70
[2]; Pre-incubated, 100 ng/ml, control 61.10
  Anti-oxidant activity, cells challenged with H2O2: 83.70 ± 1.70
[2]; [5]
  protection against H2O2 induced cellular oxidative damage: potent protection
[2]; pM-nM doses
  protection against H2O2 induced cellular oxidative damage: mild protection
[3]; Co-incubated, 10 pM, control 50.00
  Anti-oxidant activity, cells challenged with H2O2: 56.00 ± 3.35
[3]; Co-incubated, 10 pg/ml, control 49.00
  Anti-oxidant activity, cells challenged with H2O2: 53.00 ± 2.50
[3]; Co-incubated, 100 pM, control 50.00
  Anti-oxidant activity, cells challenged with H2O2: 58.96 ± 1.20
[3]; Co-incubated, 100 pg/ml, control 49.00
  Anti-oxidant activity, cells challenged with H2O2: 57.80 ± 2.50
[3]; Co-incubated, 1 nM, control 50.00
  Anti-oxidant activity, cells challenged with H2O2: 61.80 ± 1.80
[3]; Co-incubated, 1 ng/ml, control 49.00
  Anti-oxidant activity, cells challenged with H2O2: 65.15 ± 1.99
[3]; Co-incubated, 10 nM, control 50.00
  Anti-oxidant activity, cells challenged with H2O2: 63.00 ± 1.60
[3]; Co-incubated, 100 nM, control 50.00
  Anti-oxidant activity, cells challenged with H2O2: 63.38 ± 2.10
[3]; Co-incubated, 100 ng/ml (first of two lines so printed, r7), control 49.00
  Anti-oxidant activity, cells challenged with H2O2: 70.80 ± 3.25
[3]; Co-incubated, 100 ng/ml (second line, r8), control 49.00
  Anti-oxidant activity, cells challenged with H2O2: 77.50 ± 2.95
[3]; Pre-incubated, 10 pM, control 50.00
  Anti-oxidant activity, cells challenged with H2O2: 52.01 ± 2.80
[3]; Pre-incubated, 10 pg/ml, control 49.00
  Anti-oxidant activity, cells challenged with H2O2: 55.00 ± 2.00
[3]; Pre-incubated, 100 pM, control 50.00
  Anti-oxidant activity, cells challenged with H2O2: 55.76 ± 2.80
[3]; Pre-incubated, 100 pg/ml, control 49.00
  Anti-oxidant activity, cells challenged with H2O2: 58.00 ± 1.70
[3]; Pre-incubated, 1 nM, control 50.00
  Anti-oxidant activity, cells challenged with H2O2: 59.95 ± 2.10
[3]; Pre-incubated, 1 ng/ml, control 49.00
  Anti-oxidant activity, cells challenged with H2O2: 64.00 ± 1.90
[3]; Pre-incubated, 10 nM, control 50.00
  Anti-oxidant activity, cells challenged with H2O2: 61.13 ± 1.05
[3]; Pre-incubated, 100 nM, control 50.00
  Anti-oxidant activity, cells challenged with H2O2: 64.25 ± 2.30
[3]; Pre-incubated, 100 ng/ml (first of two lines so printed, r7), control 49.00
  Anti-oxidant activity, cells challenged with H2O2: 67.40 ± 3.70
[3]; Pre-incubated, 100 ng/ml (second line, r8), control 49.00
  Anti-oxidant activity, cells challenged with H2O2: 75.00 ± 4.15
[3]; [5]
  protection against H2O2 induced cellular oxidative damage: potent protection
[3]; pM-nM doses
  protection against H2O2 induced cellular oxidative damage: mild protection
[4]; Co-incubated, 1 pM, control 55.54
  Anti-oxidant activity, cells challenged with H2O2: 54.53 ± 1.67
[4]; Co-incubated, 1 pg/ml, control 55.64
  Anti-oxidant activity, cells challenged with H2O2: 59.70 ± 2.00
[4]; Co-incubated, 10 pM, control 55.54
  Anti-oxidant activity, cells challenged with H2O2: 54.79 ± 2.95
[4]; Co-incubated, 10 pg/ml, control 55.64
  Anti-oxidant activity, cells challenged with H2O2: 64.14 ± 2.04
[4]; Co-incubated, 100 pg/ml, control 55.64
  Anti-oxidant activity, cells challenged with H2O2: 67.40 ± 1.43
[4]; Co-incubated, 0.1 nM, control 55.54
  Anti-oxidant activity, cells challenged with H2O2: 56.02 ± 2.82
[4]; Co-incubated, 1 nM, control 55.54
  Anti-oxidant activity, cells challenged with H2O2: 59.80 ± 1.30
[4]; Co-incubated, 1 ng/ml, control 55.64
  Anti-oxidant activity, cells challenged with H2O2: 76.57 ± 1.50
[4]; Co-incubated, 10 nM, control 55.54
  Anti-oxidant activity, cells challenged with H2O2: 60.75 ± 2.16
[4]; Co-incubated, 10 ng/ml, control 55.64
  Anti-oxidant activity, cells challenged with H2O2: 85.90 ± 2.00
[4]; Pre-incubate, 1 pg/ml, control 55.64
  Anti-oxidant activity, cells challenged with H2O2: 61.60 ± 2.00
[4]; Pre-incubate, 10 pg/ml, control 55.64
  Anti-oxidant activity, cells challenged with H2O2: 65.18 ± 1.98
[4]; Pre-incubate, 100 pg/ml, control 55.64
  Anti-oxidant activity, cells challenged with H2O2: 67.05 ± 2.45
[4]; Pre-incubate, 1 ng/ml, control 55.64
  Anti-oxidant activity, cells challenged with H2O2: 74.40 ± 1.40
[4]; Pre-incubate, 10 ng/ml, control 55.64
  Anti-oxidant activity, cells challenged with H2O2: 77.69 ± 2.10
[4]; Pre-incubated, 1 pM, control 55.54
  Anti-oxidant activity, cells challenged with H2O2: 57.52 ± 0.80
[4]; Pre-incubated, 10 pM, control 55.54
  Anti-oxidant activity, cells challenged with H2O2: 58.90 ± 2.87
[4]; Pre-incubated, 0.1 nM, control 55.54
  Anti-oxidant activity, cells challenged with H2O2: 60.12 ± 3.40
[4]; Pre-incubated, 1 nM, control 55.54
  Anti-oxidant activity, cells challenged with H2O2: 61.70 ± 1.60
[4]; Pre-incubated, 10 nM, control 55.54
  Anti-oxidant activity, cells challenged with H2O2: 64.20 ± 1.65
[4]; βTC6 cells challenged with hydrogen peroxide
  anti-oxidant activity: potent anti-oxidant activity
[4]; βTC6 insulinoma cells
  protection against H2O2 induced cellular oxidative damage: Mild Protection
